Assays:
Type in all cases: physicochemical
[1] = Stability test (influence factors: high-humidity, light irradiation, accelerated test); sample purity measured; conditions: for purity of the sample, accelerated test: accelerated test 40° C.±2° C., relative humidity 75%±5%; for purity of the sample, initial value: day 0, initial value; for purity of the sample, high-humidity test: high-humidity 25° C., 92.5% RH; for purity of the sample, light irradiation test: light irradiation 10000 lx±500 lx
From the text: The tests last for 10 days. Samples were taken on days 0, 5 and 10 to measure the purities of the samples so as to determine their stabilities.

[2] = Moisture content after storage under high humidity and accelerated test conditions; conditions: high humidity (25° C., 92.5% RH) and accelerated test conditions (40±2° C., 75%±5% RH) for 10 days
[3] = Intrinsic dissolution rate, rotating disk method (USP Chapter 1087); conditions: 700 ml 0.1 mol/L hydrochloric acid, 300 rpm, 37° C., detection 287 nm
Procedure: Intrinsic dissolution rates of the crystalline Form A of nintedanib diethanesulfonate prepared in Example 1 and the crystalline form of nintedanib diethanesulfonate prepared according to WO2012068441 (the existing crystal) were determined by using the intrinsic dissolution rotating disk method in Chapter 1087 of the U.S. Pharmacopeia, and the results are shown in Table 2. Dissolution Medium: 700 ml of 0.1 mol/L hydrochloric acid solution, Rotating Speed: 300 rpm, Detection Wavelength: 287 nm, Medium Temperature: 37° C.

Row | purity of the sample, accelerated test ([1]; day 10) [%] | purity of the sample, initial value [1] [%] | purity of the sample, high-humidity test ([1]; day 5) [%] | purity of the sample, high-humidity test ([1]; day 10) [%] | purity of the sample, light irradiation test ([1]; day 5) [%] | purity of the sample, light irradiation test ([1]; day 10) [%] | character (appearance) after storage [2] | moisture content ([2]; listed as crystalline form of nintedanib diethanesulfonate prepared according to WO2012068) | Average dissolution rate [3] [µg/mL/min] | Maximum dissolution rate [3] [µg/mL/min] | moisture content ([2]; listed as crystalline Form A of nintedanib diethanesulfonate) | Structure (SMILES)
1 | 95.10 | 99.78 | 99.72 | 99.67 | 99.73 | 99.19 | absorbs moisture to become clumping | increases significantly | 13.373 | 14.689 | – | CCS(=O)(=O)O.COC(=O)c1ccc2c(c1)NC(=O)/C2=C(\Nc1ccc(N(C)C(=O)CN2CCN(C)CC2)cc1)c1ccccc1 [The existing crystal, nintedanib diethanesulfonate]
2 | 99.77 | 99.80 | 99.78 | 99.79 | 99.79 | 99.70 | – | – | 22.508 | 23.344 | essentially unchanged | CCS(=O)(=O)O.COC(=O)c1ccc2c(c1)NC(=O)/C2=C(\Nc1ccc(N(C)C(=O)CN2CCN(C)CC2)cc1)c1ccccc1 [The crystalline Form A, nintedanib diethanesulfonate]
